Laboratory results as given in patent US20230165851A1, “6'-METHOXYCINCHONAN-9-OLS FOR THE TREATMENT OF CORONAVIRAL INFECTIONS” (Immunologik GmbH, priority 2020, published 2023).
Where a name gives a salt, the structure may show the parent alone. Read-outs that look alike come from different tables or passages of the source.

How the values were obtained:
Vero-B4 cells = assay: WST-1 cell viability (cytotoxicity) assay in non-infected Vero-B4 cells; conditions: 3 days; for toxic effect (WST assay): antivirally effective concentrations
Description: Toxicity was assessed with a WST assay. Herein viable cells with an intact mitochondrial succinate-tetrazolium dehydrogenase system effect an enzymatic conversion of the feebly red tetrazolium salt WST-1 (4-[3-(4-iodophenyl)-2-(4-nitrophenyl)-2H-5-tetrazolio]-1,3 benzene disulfonate) into dark red formazan. This color change can be measured photometrically in a spectrophotometer. Thus, the WST assay is a very sensitive method for measuring the toxicity of substances on the cell metabolism.
In FIG. 4 the percentage of viable cells is depicted in comparison to untreated cells. The value for untreated cells was set to 100%. 1 μM staurosporine (an indolocarbazole compound from Streptomyces staurosporeus, an apoptosis inducer) was used as positive control.
In FIG. 8 the percentage of viable cells is depicted in comparison to untreated cells wherein the value for untreated cells was set to 100%. Again 1 μM staurosporine was used as positive control.

SARS-CoV-2 [1] = format: cell-based; conditions: infected Vero-B4 cells, 3 dpi; for inhibition of SARS-CoV-2 protein generation compared with same/respective concentration of chloroquine or hydroxychloroquine (densitometry): comparators at 10 μM
SARS-CoV-2 [2] = format: cell-based; conditions: infected Vero-B4 cells, 3 dpi
[3] = quinine sulfate series up to 100 μM

SMILES	toxic effect (WST assay) (Vero-B4 cells)	concentration up to which no toxic effect was detectable (WST assay) (Vero-B4 cells; tested 2.5 to 80 μM)	block of virus replication (Western blot) (SARS-CoV-2 [1]; 20 μM)	inhibition of SARS-CoV-2 replication (Western blot) (SARS-CoV-2 [1]; 2.5, 5, 10 and 20 μM)	generation of SARS-CoV-2 proteins (densitometric evaluation of nucleoprotein in virus fraction) (SARS-CoV-2 [1]; 2.5 to 20 μM)	inhibition of SARS-CoV-2 protein generation compared with same/respective concentration of chloroquine or hydroxychloroquine (densitometry) (SARS-CoV-2 [1])	reduction compared with 10 μM chloroquine or 10 μM hydroxychloroquine (Western blot) (SARS-CoV-2 [1]; quinidine sulfate series up to 20 μM)	reduction of SARS-CoV-2 RNA copies (qRT-PCR) (SARS-CoV-2 [2]; 2.5 μM, 5 μM, 10 μM and 20 μM)	reduction of SARS-CoV-2 RNA copies (qRT-PCR) (SARS-CoV-2 [2]; 10 μM)	reduction compared with 10 μM chloroquine or 10 μM hydroxychloroquine (qRT-PCR) (SARS-CoV-2 [2]; 20 μM)	reduction of SARS-CoV-2 RNA copies (qRT-PCR) (SARS-CoV-2 [2]; 20 μM)	generation of SARS-CoV-2 proteins (densitometric evaluation of nucleoprotein in virus fraction) (SARS-CoV-2 [1]; 100 nM to 100 μM)	inhibition of SARS-CoV-2 replication (Western blot) (SARS-CoV-2 [1]; 100 nM, 1 μM, 10 μM and 100 μM)	block of virus replication (Western blot) (SARS-CoV-2 [1]; 100 μM)	reduction compared with 10 μM chloroquine or 10 μM hydroxychloroquine (Western blot) (SARS-CoV-2 [1]; [3])	reduction in the amount of SARS-CoV-2 RNA copies (qRT-PCR) (SARS-CoV-2 [2]; 100 nM, 1 μM, 10 μM and 100 μM)	block of virus spread (qRT-PCR) (SARS-CoV-2 [2]; 100 μM)	reduction compared with 10 μM chloroquine or 10 μM hydroxychloroquine (qRT-PCR) (SARS-CoV-2 [2]; [3])
C=C[C@H]1C[N@@]2CC[C@H]1C[C@@H]2[C@@H](O)c1ccnc2ccc(OC)cc12 [quinidine sulfate]	did not display any significant toxic effect	Up to 80 μM	nearly complete block of virus replication	dose-dependent inhibition	inhibited in a dose-dependent manner	higher percentage	clearly higher	dose-dependent reduction	approximately 82%	significant better reduction	approximately 97%	–	–	–	–	–	–	–
C=C[C@H]1C[N@@]2CC[C@H]1C[C@H]2[C@H](O)c1ccnc2ccc(OC)cc12 [quinine sulfate]	did not display any significant toxic effect	–	–	–	–	higher percentage	–	–	approximately 85%	–	–	inhibited in a dose-dependent manner	dose-dependent inhibition	complete block of virus replication	significantly higher	dose-dependent reduction	complete block of virus spread	significantly higher
